Measurements taken from publication PMC9783881, “Synthesis and Preclinical Evaluation of Small-Molecule Prostate-Specific Membrane Antigen-Targeted Abiraterone Conjugate” (Molecules, 2022).

System: PC-3
Test: Single cell ROS measurement with Pt-nanoelectrodes, PC-3
Format: cell-based, human
Conditions: PC-3, 1 h incubation, IC50 concentration
Experimental: Commercially available, disk-shaped carbon nanoelectrodes isolated in quartz (ICAPPIC Limited, London, UK) with diameters of 60–100 nm were used to prepare Pt nanoelectrodes for the amperometric detection of intracellular ROS level. Preparation of Pt-nanoelectrodes has been described in detail previously.
Briefly, a disk-shaped carbon nanoelectrode was etched in a 0.1 M NaOH, 10 mM KCl solution for 20–40 cycles of 10 seconds (from 0 to +2200 mV) to create nanocavities. Electrochemical deposition of platinum in nanocavities was achieved by cycling from 0 to −800 mV with a scan rate of 200 mV s^−1 for 8 to 10 cycles in 2 mM H2PtCl6 solution in 0.1 M hydrochloric acid. […]
The setup for amperometric measurements included a PC that was connected to a system consisting of an ADC–DAC converter Axon Digidata 1550B (Axon Instruments, Burlingame, CA, USA) and patch-clamp amplifier MultiClamp 700B (Axon Instruments, USA). […] The potential difference between the Pt-nanoelectrode and the reference electrode was recorded with the pClamp 11 software suite (Molecular Devices, Silicon Valley, CA, USA) and processed with Origin 2018 software.
PC-3 (2.0 × 10^5)/22Rv1 (3.5 × 10^5) cells were seeded in 35 mm Petri dishes, incubated under the conditions described above, and then treated for 24 h. […] Untreated cells were used as a control, which was evaluated at the beginning and at the end of the experiment. […]

C[C@]12CC[C@H](OC(=O)CCCc3cn(CCCNC(=O)[C@H](Cc4ccc(O)cc4)NC(=O)[C@H](Cc4ccccc4)NC(=O)CCC(=O)NCCCCCC(=O)N(CCCC[C@H](NC(=O)N[C@@H](CCC(=O)O)C(=O)O)C(=O)O)Cc4cccc(Cl)c4)nn3)CC1=CC[C@@H]1[C@@H]2CC[C@]2(C)C(c3cccnc3)=CC[C@@H]12 [PSMA-Abi]
ROS (hydrogen peroxide) level in single cells: remained at the level of the AbiAc sample
